In PubChem BioAssay (NCI):
Values joined by “and” are separate entries in the source; they are usually repeats but may differ in a detail not shown here. Equal entries are not always repeated.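 Values below derive from 48-hour exposures of cells grown in 96-well plates, with endpoints linearly interpolated between the two concentrations bracketing the appropriate inhibition level. The concentration for 50% growth inhibition is given as GI50. TGI is the concentration that stops growth completely.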

Test system: MDA-MB-468 breast
Assay: growth of human tumour cells (NCI), 48 h

SMILES	GI50	TGI
O=C1C(Br)=CC2C1C1C3CCC3C2(Br)C12OCCO2 (centres undefined)	1370 nM	4210 nM
COc1cc(C2CC(c3cccc(Nc4ccnc5cc(Cl)ccc45)c3)=NN2C=O)cc(OC)c1OC (centres undefined)	293 nM	1070 nM
Cc1ncc(C(=O)Nc2ccc(CN3CCN(C)CC3)c(C(F)(F)F)c2)cc1C#Cc1c(N)ncc2ccc(F)cc12	2820 nM	12000 nM
O=C1NC(=NCc2ccccc2Br)S/C1=C\c1ccc2ncccc2c1	4220 nM	> 25000 nM
CCCN1CCN(c2ccc3nc(-c4ccc5nc(-c6ccc(C(F)(F)F)cc6)[nH]c5c4)[nH]c3c2)CC1	1780 nM	3390 nM
O=c1[nH]cnc2c1ccn2C1OC(CO)C(O)C1O (centres undefined)	762 nM	3730 nM
CN1N=C(N)c2cn(C3OC(COP(=O)(O)O)C(O)C3O)c3ncnc1c23 (centres undefined)	205 nM	3050 nM
O=C(NCCCN1CCC(N2CCCCC2)CC1)C1=Cc2cc(Br)ccc2OC1	3150 nM	12600 nM
COc1cccc2c1C(=O)c1c(O)c3c(c(O)c1C2=O)C[C@@](O)(C(C)=O)C[C@@H]3O[C@H]1C[C@H](N)[C@H](O)[C@H](C)O1	71.6 nM	221 nM
CCN1C(C)(C)CC(Oc2ccc(C(=O)Nc3ccc(NC(=O)Nc4cc(C(C)(C)C)on4)cc3)nc2)CC1(C)C	3210 nM	8950 nM
Oc1c(I)cc(I)cc1CNCCN(Cc1ccccn1)Cc1ccccn1	1670 nM	4850 nM
O=C(OCc1nc2nc(Cl)nc(N3CCOCC3)c2[nH]1)n1ccnc1	1850 nM	3540 nM
CSc1nc(N)cc(Oc2ccc(-c3nc(Nc4cccc(C(F)(F)F)c4)n[nH]3)cc2)n1	360 nM	2660 nM
O=c1oc2ccc(Br)cc2c(=O)n1-c1ccc(Br)cc1F	819 nM	4320 nM
Cn1cc(-c2nonc2-c2cn(C)c3ccc(F)cc23)c2ccccc21	515 nM	> 84000 nM
O=C1Nc2ccccc2/C1=C\c1c[nH]c2ccc(Br)cc12	1620 nM	3760 nM

SMILES	GI50	TGI
O=C1C=CC=C[C@@H]2C(C3OCCO3)CC[C@H]12.[C-]#[O+].[C-]#[O+].[C-]#[O+].[Fe] (some centres undefined)	35200 nM	> 100000 nM
N#C/C(=C/NC(=S)NCc1ccccc1)C(N)=O	> 100000 nM	> 100000 nM
Cn1cc(C2=C(Oc3ccccc3)C(=O)NC2=O)c2ccccc21	> 25000 nM	> 25000 nM
Cc1ccccc1N1CCN(C2=C(Cl)C(=O)c3ncccc3C2=O)CC1	1600 nM	3180 nM
C[C@H](NC(=O)c1c(N)nn2cccnc12)c1cc2cccc(C#Cc3cnn(C)c3)c2c(=O)n1-c1ccccc1	843 nM and 1460 nM	4550 nM and 9080 nM
Cc1cc(Nc2nc(-c3ccc(F)cc3)nc3ccccc23)n[nH]1	2010 nM	11300 nM
C#C[C@]1(O)CC[C@H]2[C@@H]3CC=C4c5sc(Nc6ccc(OC)nc6)nc5CC[C@]4(C)[C@H]3CC[C@@]21C	1460 nM	3530 nM
COc1ccc(NC(=O)Nc2ccccc2CNc2nc(Nc3ccc(OCCN4CCCC4)cc3)ncc2Cl)cc1	894 nM	1720 nM
CCN(CC)c1ccc(/C=N/NC(=O)c2ccc(S(C)(=O)=O)cc2)c(O)c1	250 nM	1270 nM
CS(=O)(=O)CCN(CC#N)Cc1ccc(-c2ccc3ncnc(Nc4ccc(OCc5cccc(F)c5)c(Cl)c4)c3c2)o1	76.7 nM	1090 nM
COc1cc(-c2cc(/C=C3\C(=O)Nc4cc(Cl)ccc43)[nH]n2)cc(OC)c1OC	3170 nM	18200 nM
Clc1ccc(CNc2ccc3nc(CCC4CCCCC4)[nH]c3c2)cc1	1570 nM	3470 nM
C/C(=C1\SC(=NCc2cccs2)NC1=O)c1ccc2ncccc2c1	7130 nM	> 25000 nM
CCn1c(-c2nonc2N)nc2c(C#CC(C)(C)O)nc(CN3CCCC3)cc21	4150 nM	> 25000 nM
C=CCNCCN1C(=O)c2ccc3c4c(ccc(c24)C1=O)C(=O)N(CCNCC=C)C3=O	466 nM	1160 nM
COc1ccc(C2C(C#N)=C(N)Oc3c2sc2c(F)cccc32)cc1 (centres undefined)	1340 nM	10600 nM
